Results reported in ChEMBL document CHEMBL4507260 (2021).

What was measured:
[1] = biological target: Adenosine receptor A2a (Homo sapiens) (UniProt P29274); test: A2A CEREP ligand profiling; conditions: Compound concentration 10.0 uM
[2] = biological target: Adrenergic receptor alpha-1 (Homo sapiens) (UniProt P35348+P25100+P35368); test: a 1 CEREP ligand profiling; assay type: protein assay; conditions: Compound concentration 10.0 uM
[3] = biological target: Beta-2 adrenergic receptor (Homo sapiens) (UniProt P07550); test: b 2 CEREP ligand profiling; conditions: Compound concentration 10.0 uM
[4] = biological target: Gastrin/cholecystokinin type B receptor (Homo sapiens) (UniProt P32239); test: CCKB (CCK2) CEREP ligand profiling; conditions: Compound concentration 10.0 uM
[5] = biological target: Sodium-dependent noradrenaline transporter (Homo sapiens) (UniProt P23975); conditions: Compound concentration 10.0 uM
Description: NE transporter CEREP ligand profiling

[6] = biological target: Cannabinoid receptor 2 (Homo sapiens) (UniProt P34972); conditions: Compound concentration 10.0 uM
Description: CB2 CEREP ligand profiling

[7] = biological target: Cholecystokinin receptor type A (Homo sapiens) (UniProt P32238); conditions: Compound concentration 10.0 uM
Description: CCKA (CCK1) CEREP ligand profiling

[8] = biological target: D(2) dopamine receptor (Homo sapiens) (UniProt P14416); conditions: Compound concentration 10.0 uM
Description: D2 CEREP ligand profiling

[9] = biological target: Muscarinic acetylcholine receptor M1 (Homo sapiens) (UniProt P11229); conditions: Compound concentration 10.0 uM
Description: M1 CEREP ligand profiling

[10] = biological target: Muscarinic acetylcholine receptor M2 (Homo sapiens) (UniProt P08172); conditions: Compound concentration 10.0 uM
Description: M2 CEREP ligand profiling

[11] = biological target: Muscarinic acetylcholine receptor M5 (Homo sapiens) (UniProt P08912); conditions: Compound concentration 10.0 uM
Description: M5 CEREP ligand profiling

[12] = biological target: Substance-P receptor (Homo sapiens) (UniProt P25103); conditions: Compound concentration 10.0 uM
Description: NK1 CEREP ligand profiling

[13] = biological target: Neuropeptide Y receptor type 1 (Homo sapiens) (UniProt P25929); conditions: Compound concentration 10.0 uM
Description: Y1 CEREP ligand profiling

[14] = biological target: Neuropeptide Y receptor type 2 (Homo sapiens) (UniProt P49146); conditions: Compound concentration 10.0 uM
Description: Y2 CEREP ligand profiling

[15] = biological target: Thromboxane A2 receptor (Homo sapiens) (UniProt P21731); conditions: Compound concentration 10.0 uM
Description: TXA2/PGH2 CEREP ligand profiling

[16] = biological target: Vasoactive intestinal polypeptide receptor 1 (Homo sapiens) (UniProt P32241); conditions: Compound concentration 10.0 uM
Description: VIP1 (VPAC1) CEREP ligand profiling

[17] = biological target: Calcium-activated potassium channel (Homo sapiens) (UniProt Q92952+Q9UGI6+Q12791+O15554+Q9H2S1+A8MYU2); conditions: Compound concentration 10.0 uM
Description: SK+Ca channel CEREP ligand profiling

[18] = system: Epidermal growth factor receptor (Homo sapiens), P00533 [G719C]; conditions: Compound concentration 1000.0 nM

Sequence of Sodium-dependent noradrenaline transporter (Homo sapiens) (P23975 whole entry): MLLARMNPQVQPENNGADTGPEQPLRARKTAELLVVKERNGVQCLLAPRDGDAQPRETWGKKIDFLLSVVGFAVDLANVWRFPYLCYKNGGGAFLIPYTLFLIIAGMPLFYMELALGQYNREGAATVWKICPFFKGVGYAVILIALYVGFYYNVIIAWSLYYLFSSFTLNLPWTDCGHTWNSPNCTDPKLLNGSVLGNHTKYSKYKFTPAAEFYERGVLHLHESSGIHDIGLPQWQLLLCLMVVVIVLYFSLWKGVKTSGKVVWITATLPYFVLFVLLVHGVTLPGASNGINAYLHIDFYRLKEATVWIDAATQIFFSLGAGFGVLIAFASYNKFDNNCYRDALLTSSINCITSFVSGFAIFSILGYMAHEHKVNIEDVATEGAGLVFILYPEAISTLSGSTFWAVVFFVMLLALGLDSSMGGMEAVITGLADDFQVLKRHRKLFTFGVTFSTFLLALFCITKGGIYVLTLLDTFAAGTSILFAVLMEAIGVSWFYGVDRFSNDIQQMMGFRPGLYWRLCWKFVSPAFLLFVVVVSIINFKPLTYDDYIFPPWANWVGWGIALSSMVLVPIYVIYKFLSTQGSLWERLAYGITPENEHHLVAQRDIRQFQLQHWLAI
Sequence of Substance-P receptor (Homo sapiens) (P25103 whole entry): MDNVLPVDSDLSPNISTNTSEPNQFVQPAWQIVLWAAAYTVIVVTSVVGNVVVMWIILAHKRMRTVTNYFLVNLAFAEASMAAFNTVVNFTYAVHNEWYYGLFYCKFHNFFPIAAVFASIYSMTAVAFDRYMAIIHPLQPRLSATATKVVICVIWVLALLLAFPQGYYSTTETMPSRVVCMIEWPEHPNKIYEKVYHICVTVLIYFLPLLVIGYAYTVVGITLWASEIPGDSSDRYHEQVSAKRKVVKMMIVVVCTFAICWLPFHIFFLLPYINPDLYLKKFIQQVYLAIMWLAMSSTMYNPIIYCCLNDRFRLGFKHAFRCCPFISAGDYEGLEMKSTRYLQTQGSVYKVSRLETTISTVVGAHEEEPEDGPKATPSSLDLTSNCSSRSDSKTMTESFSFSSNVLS
Sequence of Beta-2 adrenergic receptor (Homo sapiens) (P07550 whole entry, looked up): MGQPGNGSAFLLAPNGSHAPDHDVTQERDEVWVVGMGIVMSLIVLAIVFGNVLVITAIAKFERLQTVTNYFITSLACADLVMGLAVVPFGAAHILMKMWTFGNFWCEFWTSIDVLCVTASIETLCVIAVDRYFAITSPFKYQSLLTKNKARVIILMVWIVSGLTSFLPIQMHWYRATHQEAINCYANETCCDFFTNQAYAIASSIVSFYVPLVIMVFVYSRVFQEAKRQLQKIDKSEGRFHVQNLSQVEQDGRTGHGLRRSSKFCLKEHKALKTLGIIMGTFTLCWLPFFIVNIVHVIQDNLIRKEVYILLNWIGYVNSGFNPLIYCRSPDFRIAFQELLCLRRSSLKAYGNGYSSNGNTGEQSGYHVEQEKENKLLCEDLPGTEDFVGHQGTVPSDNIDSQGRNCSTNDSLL
Sequence of Muscarinic acetylcholine receptor M5 (Homo sapiens) (P08912 whole entry): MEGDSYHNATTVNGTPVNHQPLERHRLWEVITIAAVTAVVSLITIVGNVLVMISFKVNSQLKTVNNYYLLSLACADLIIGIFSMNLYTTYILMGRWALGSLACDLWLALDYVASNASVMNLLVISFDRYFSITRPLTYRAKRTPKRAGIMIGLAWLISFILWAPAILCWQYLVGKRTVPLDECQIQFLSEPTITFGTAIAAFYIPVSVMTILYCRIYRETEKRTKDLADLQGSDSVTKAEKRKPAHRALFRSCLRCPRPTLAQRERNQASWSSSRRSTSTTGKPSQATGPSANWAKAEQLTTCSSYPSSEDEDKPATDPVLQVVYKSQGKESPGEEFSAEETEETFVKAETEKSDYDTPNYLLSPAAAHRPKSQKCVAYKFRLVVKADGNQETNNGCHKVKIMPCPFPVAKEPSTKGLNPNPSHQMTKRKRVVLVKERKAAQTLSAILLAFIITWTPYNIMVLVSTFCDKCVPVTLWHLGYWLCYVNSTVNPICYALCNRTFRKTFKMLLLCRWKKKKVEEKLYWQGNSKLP
Sequence of Muscarinic acetylcholine receptor M2 (Homo sapiens) (P08172 whole entry): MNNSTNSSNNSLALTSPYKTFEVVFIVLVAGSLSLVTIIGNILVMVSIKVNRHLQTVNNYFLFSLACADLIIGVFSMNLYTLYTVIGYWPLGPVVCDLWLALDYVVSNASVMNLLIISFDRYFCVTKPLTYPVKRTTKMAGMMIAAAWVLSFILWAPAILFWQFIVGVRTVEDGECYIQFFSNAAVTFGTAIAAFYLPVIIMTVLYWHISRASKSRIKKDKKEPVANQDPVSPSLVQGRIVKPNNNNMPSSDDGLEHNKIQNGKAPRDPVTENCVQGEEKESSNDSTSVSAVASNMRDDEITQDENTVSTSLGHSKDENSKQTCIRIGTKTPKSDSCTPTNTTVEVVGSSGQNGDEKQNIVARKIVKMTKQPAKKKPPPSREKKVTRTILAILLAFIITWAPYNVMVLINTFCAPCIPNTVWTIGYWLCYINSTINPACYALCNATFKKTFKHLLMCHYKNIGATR
Sequence of Muscarinic acetylcholine receptor M1 (Homo sapiens) (P11229 whole entry): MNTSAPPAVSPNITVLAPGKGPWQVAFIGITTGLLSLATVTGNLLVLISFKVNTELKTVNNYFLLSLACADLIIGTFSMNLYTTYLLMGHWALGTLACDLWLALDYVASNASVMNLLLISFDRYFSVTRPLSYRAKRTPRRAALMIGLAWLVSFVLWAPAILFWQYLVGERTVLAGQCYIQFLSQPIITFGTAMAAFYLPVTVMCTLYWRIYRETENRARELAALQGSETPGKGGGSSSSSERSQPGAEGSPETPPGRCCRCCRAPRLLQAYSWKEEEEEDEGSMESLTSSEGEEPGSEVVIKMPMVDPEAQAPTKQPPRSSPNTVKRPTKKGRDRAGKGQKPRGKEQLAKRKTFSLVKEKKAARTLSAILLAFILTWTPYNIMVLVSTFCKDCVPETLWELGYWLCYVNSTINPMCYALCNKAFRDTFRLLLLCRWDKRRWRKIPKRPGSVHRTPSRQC
Sequence of Vasoactive intestinal polypeptide receptor 1 (Homo sapiens) (P32241 whole entry): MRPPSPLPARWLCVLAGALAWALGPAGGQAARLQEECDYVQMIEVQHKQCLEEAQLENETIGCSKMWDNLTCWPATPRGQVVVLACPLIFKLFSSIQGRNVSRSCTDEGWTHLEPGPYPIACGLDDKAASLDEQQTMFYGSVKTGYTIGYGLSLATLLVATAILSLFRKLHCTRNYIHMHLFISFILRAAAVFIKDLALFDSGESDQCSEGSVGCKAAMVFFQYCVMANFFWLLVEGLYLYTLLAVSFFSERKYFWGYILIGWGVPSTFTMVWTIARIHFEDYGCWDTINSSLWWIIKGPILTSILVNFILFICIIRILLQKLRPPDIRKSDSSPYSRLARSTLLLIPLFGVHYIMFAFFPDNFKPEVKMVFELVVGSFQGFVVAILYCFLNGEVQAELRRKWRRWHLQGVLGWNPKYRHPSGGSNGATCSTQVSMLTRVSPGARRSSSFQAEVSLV
Sequence of D(2) dopamine receptor (Homo sapiens) (P14416 whole entry): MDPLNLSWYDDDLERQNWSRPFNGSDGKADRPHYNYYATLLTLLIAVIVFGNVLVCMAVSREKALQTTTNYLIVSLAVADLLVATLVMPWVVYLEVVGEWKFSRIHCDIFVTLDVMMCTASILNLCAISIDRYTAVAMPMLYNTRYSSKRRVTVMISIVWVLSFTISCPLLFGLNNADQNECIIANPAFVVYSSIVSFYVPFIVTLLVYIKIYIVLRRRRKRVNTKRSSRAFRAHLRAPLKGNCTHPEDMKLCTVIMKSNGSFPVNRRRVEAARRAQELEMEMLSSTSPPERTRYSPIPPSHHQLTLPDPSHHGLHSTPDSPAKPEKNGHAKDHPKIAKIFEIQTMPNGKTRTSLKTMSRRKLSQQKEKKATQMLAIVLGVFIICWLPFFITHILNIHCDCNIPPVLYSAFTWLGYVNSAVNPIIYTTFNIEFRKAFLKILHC
Sequence of Neuropeptide Y receptor type 1 (Homo sapiens) (P25929 whole entry): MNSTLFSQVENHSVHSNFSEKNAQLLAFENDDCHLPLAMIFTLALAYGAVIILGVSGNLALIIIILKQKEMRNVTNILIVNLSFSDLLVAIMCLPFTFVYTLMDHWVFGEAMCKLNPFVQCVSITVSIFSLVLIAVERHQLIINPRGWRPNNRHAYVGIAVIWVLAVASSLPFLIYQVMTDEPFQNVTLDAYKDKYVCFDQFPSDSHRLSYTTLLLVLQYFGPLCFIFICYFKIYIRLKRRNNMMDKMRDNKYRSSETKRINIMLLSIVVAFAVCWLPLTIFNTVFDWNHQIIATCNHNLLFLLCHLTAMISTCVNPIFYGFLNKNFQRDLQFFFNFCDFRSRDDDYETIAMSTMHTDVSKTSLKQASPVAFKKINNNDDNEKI
Sequence of Thromboxane A2 receptor (Homo sapiens) (P21731 whole entry): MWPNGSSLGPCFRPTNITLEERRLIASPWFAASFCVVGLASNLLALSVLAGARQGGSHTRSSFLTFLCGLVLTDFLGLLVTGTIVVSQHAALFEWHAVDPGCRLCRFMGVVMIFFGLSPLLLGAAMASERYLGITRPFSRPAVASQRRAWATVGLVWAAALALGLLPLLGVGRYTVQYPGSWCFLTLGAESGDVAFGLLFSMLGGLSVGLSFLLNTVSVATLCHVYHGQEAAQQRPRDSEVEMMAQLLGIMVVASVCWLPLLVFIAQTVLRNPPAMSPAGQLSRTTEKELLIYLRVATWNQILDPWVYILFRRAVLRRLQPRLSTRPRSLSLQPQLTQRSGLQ
Sequence of Adenosine receptor A2a (Homo sapiens) (P29274 whole entry): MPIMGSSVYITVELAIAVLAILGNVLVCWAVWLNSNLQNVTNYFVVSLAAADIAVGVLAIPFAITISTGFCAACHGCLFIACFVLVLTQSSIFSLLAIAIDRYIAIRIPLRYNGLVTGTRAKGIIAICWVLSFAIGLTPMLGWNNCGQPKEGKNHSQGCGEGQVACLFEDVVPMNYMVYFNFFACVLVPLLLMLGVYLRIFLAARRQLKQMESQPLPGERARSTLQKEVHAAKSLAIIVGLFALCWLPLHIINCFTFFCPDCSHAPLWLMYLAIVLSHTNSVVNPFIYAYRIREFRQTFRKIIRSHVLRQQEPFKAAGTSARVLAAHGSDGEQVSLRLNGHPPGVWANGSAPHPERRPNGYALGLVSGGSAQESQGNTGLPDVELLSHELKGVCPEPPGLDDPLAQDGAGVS

c1ccc(N2CCN(Cc3nc4ccccc4[nH]3)CC2)nc1 [ABT-724]
inactive: inhibition [1] 28% | inhibition [2] 23% | inhibition [3] 13% | inhibition [4] 17% | inhibition [5] < 10% | inhibition [6] < 10% | inhibition [7] < 10% | inhibition [8] < 10% | inhibition [9] < 10% | inhibition [10] < 10% | inhibition [11] < 10% | inhibition [12] < 10% | inhibition [13] < 10% | inhibition [14] < 10% | inhibition [15] < 10% | inhibition [16] < 10% | inhibition [17] < 10%

CSc1cccnc1N1CCN(Cc2nc3ccccc3[nH]2)CC1 [A-769]
inactive: residual activity [18] 96%
